Assay results from patent US10988477B2 (Merck Patent GmbH, priority 2018, dated 2021).

Target: GCN2 kinase (Homo sapiens, UniProt Q9P2K8)
Assay: GCN2 enzyme inhibition assay (Transcreener ADP2 fluorescence polarization)
Format: biochemical
Settings: compounds of Formula II; 280 μM ATP, 4 nM GCN2 kinase
Summary of the method: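 Inhibition of 4 nM GCN2 was measured with compound up to 8 μM final, ATP 280 μM and (RS)7 peptide 200 μM over a 1 h, 25 °C reaction. ADP FP readout; IC50 and Ki(app) calculated from percent inhibition.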

Chain of GCN2 kinase (Q9P2K8 whole entry): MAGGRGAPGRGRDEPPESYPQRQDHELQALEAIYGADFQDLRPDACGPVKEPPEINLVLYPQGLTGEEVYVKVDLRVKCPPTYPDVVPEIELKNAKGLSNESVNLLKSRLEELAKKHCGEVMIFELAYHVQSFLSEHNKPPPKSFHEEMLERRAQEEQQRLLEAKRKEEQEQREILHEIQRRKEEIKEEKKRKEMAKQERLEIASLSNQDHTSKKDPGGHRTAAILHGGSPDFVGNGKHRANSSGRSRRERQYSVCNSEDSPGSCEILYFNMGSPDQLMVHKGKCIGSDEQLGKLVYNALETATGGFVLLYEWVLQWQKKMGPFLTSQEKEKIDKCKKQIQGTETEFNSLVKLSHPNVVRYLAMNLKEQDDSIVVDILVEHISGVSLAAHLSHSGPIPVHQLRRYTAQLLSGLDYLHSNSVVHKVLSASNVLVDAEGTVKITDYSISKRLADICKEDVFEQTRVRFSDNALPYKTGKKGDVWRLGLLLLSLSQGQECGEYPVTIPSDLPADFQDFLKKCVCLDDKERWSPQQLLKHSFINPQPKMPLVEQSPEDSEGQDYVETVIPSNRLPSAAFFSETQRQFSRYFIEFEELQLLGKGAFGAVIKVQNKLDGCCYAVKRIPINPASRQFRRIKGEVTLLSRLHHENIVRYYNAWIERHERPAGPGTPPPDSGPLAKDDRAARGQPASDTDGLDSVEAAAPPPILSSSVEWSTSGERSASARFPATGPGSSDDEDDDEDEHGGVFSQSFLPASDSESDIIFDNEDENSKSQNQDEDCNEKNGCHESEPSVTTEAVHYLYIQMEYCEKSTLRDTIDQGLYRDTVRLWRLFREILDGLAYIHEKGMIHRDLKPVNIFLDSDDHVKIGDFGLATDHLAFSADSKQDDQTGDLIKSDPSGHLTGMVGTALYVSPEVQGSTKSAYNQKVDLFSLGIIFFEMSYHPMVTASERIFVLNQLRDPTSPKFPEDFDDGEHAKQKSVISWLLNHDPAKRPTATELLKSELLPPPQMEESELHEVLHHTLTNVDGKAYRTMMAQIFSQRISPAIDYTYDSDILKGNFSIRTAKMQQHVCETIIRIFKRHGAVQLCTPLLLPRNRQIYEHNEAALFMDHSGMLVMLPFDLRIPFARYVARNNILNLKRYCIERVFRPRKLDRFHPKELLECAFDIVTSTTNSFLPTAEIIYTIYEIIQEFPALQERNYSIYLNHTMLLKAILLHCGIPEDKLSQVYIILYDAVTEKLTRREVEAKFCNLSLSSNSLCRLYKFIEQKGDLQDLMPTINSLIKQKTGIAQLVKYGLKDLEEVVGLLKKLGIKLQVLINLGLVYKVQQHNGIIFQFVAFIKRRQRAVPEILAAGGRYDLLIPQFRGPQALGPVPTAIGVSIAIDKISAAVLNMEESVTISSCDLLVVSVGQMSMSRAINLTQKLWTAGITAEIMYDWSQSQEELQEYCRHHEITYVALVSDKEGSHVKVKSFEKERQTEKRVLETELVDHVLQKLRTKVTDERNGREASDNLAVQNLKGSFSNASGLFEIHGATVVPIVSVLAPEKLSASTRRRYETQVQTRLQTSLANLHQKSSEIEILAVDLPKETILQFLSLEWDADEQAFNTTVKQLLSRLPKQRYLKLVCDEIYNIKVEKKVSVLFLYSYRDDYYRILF

SMILES | Ki [µM]
Cc1cc(CN=S(C)(C)=O)cc(-c2cc(-c3cnc4ccc(C(F)F)nn34)ncn2)c1 [II-610, [3-[6-[6-(Difluoromethyl)imidazo[1,2-b]pyridazin-3-yl]pyrimidin-4-yl]-5-methyl-phenyl]methylimino-dimethyl-oxo-λ^6-sulfane] | 0.01 to 1
Cc1cc(CNS(C)(=O)=O)cc(-c2cc(-c3cnc4ccc(C(F)F)nn34)ncn2)c1 [II-612, N-(3-(6-(6-(Difluoromethyl)imidazo[1,2-b]pyridazin-3-yl)pyrimidin-4-yl)-5-methylbenzyl)methanesulfonamide] | < 0.01
CC1C(CNS(C)(=O)=O)C(C)(O)C(C)CN1c1cc(-c2cnc3ccc(C(F)F)nn23)ncn1 (centres unmarked) [II-617, N-((1-(6-(6-(Difluoromethyl)imidazo[1,2-b]pyridazin-3-yl)pyrimidin-4-yl)-4-hydroxy-2,4,5-trimethylpiperidin-3-yl)methyl)methanesulfonamide] | 0.01 to 1
CC(NS(C)(=O)=O)C1CCCN(c2cc(-c3cnc4ccc(C(F)F)nn34)ncn2)C1 (centres unmarked) [II-619, N-(1-(1-(6-(6-(Difluoromethyl)imidazo[1,2-b]pyridazin-3-yl)pyrimidin-4-yl)piperidin-3-yl)ethyl)methanesulfonamide] | 0.01 to 1
CC(NS(C)(=O)=O)C1CCCN(c2cc(-c3cnc4ccc(C(F)F)nn34)ncn2)C1 (centres unmarked) [II-620, N-(1-(1-(6-(6-(Difluoromethyl)imidazo[1,2-b]pyridazin-3-yl)pyrimidin-4-yl)piperidin-3-yl)ethyl)methanesulfonamide] | 0.01 to 1
CC(C)C(C)(O)C1CCCN(c2cc(-c3cnc4ccc(C(F)F)nn34)ncn2)C1 (centres unmarked) [II-621, 2-(1-(6-(6-(Difluoromethyl)imidazo[1,2-b]pyridazin-3-yl)pyrimidin-4-yl)piperidin-3-yl)-3-methylbutan-2-ol] | 0.01 to 1
CC1CN(c2cc(-c3cnc4ccc(C(F)F)nn34)ncn2)CC(CO)C1(F)F (centres unmarked) [II-623, (1-(6-(6-(Difluoromethyl)imidazo[1,2-b]pyridazin-3-yl)pyrimidin-4-yl)-4,4-difluoro-5-methylpiperidin-3-yl)methanol] | < 0.01
CC1CN(c2cc(-c3cnc4ccc(C(F)F)nn34)ncn2)CC(CO)C1(F)F (centres unmarked) [II-624, (1-(6-(6-(Difluoromethyl)imidazo[1,2-b]pyridazin-3-yl)pyrimidin-4-yl)-4,4-difluoro-5-methylpiperidin-3-yl)methanol] | 0.01 to 1
OC1CCCC2C1NCCN2c1cc(-c2cnc3ccc(C(F)F)nn23)ncn1 (centres unmarked) [II-628, 1-[6-[6-(Difluoromethyl)imidazo[1,2-b]pyridazin-3-yl]pyrimidin-4-yl]-3,4,4a,5,6,7,8,8a-octahydro-2H-quinoxalin-5-ol] | 0.01 to 1
CCC1CC(N=S(C)(C)=O)CN(c2cc(-c3cnc4ccc(C(F)F)nn34)ncn2)C1 (centres unmarked) [II-648, ((1-(6-(6-(Difluoromethyl)imidazo[1,2-b]pyridazin-3-yl)pyrimidin-4-yl)-5-ethylpiperidin-3-yl)imino)dimethyl-λ^6-sulfanone] | < 0.01
CC1CC(N=S2(=O)CCCC2)CN(c2cc(-c3cnc4ccc(C(F)F)nn34)ncn2)C1 (centres unmarked) [II-649, 1-((1-(6-(6-(Difluoromethyl)imidazo[1,2-b]pyridazin-3-yl)pyrimidin-4-yl)-5-methylpiperidin-3-yl)imino)tetrahydro-1H-1-λ^6-thiophene 1-oxide] | 0.01 to 1
CS(C)(=O)=NC1CC(C(F)(F)F)CN(c2cc(-c3cnc4ccc(C(F)F)nn34)ncn2)C1 (centres unmarked) [II-654, ((1-(6-(6-(Difluoromethyl)imidazo[1,2-b]pyridazin-3-yl)pyrimidin-4-yl)-5-(trifluoromethyl)piperidin-3-yl)imino)dimethyl-λ^6-sulfanone] | 0.01 to 1
CC1CC(N=S(C)(C)=O)CN(c2cc(-c3cnc4ccc(C(F)F)nn34)ccn2)C1 (centres unmarked) [II-691, ((1-(4-(6-(Difluoromethyl)imidazo[1,2-b]pyridazin-3-yl)pyridin-2-yl)-5-methylpiperidin-3-yl)imino)dimethyl-λ^6-sulfanone] | 0.01 to 1
CC1CCC(N=S(C)(C)=O)CN1c1cc(-c2cnc3ccc(C(F)F)nn23)ncn1 (centres unmarked) [II-697, [1-[6-[6-(Difluoromethyl)imidazo[1,2-b]pyridazin-3-yl]pyrimidin-4-yl]-6-methyl-3-piperidyl]imino-dimethyl-λ^6-sulfanone] | > 1
CC1CC(N=S(C)(C)=O)CN(c2cc(-c3cnc4ccc(C#N)nn34)ncn2)C1 (centres unmarked) [II-702, 3-(6-(3-((Dimethyl(oxo)-λ^6-sulfanylidene)amino)-5-methylpiperidin-1-yl)pyrimidin-4-yl)imidazo[1,2-b]pyridazine-6-carbonitrile] | 0.01 to 1
CC1CC(N=S(C)(C)=O)CN(c2cc(-c3cnc4ccc(C#N)nn34)ncn2)C1 (centres unmarked) [II-703, 3-(6-(3-((Dimethyl(oxo)-λ^6-sulfanylidene)amino)-5-methylpiperidin-1-yl)pyrimidin-4-yl)imidazo[1,2-b]pyridazine-6-carbonitrile] | < 0.01
CC1CC(P(C)(C)=O)CN(c2cc(-c3cnc4ccc(C(F)(F)F)nn34)ncn2)C1 (centres unmarked) [II-712, 3-[6-(3-Dimethylphosphoryl-5-methyl-1-piperidyl)pyrimidin-4-yl]-6-(trifluoromethyl)imidazo[1,2-b]pyridazine] | > 1
CC1CC(P(C)(C)=O)CN(c2cc(-c3cnc4ccc(C(F)(F)F)nn34)ncn2)C1 (centres unmarked) [II-713, 3-[6-(3-Dimethylphosphoryl-5-methyl-1-piperidyl)pyrimidin-4-yl]-6-(trifluoromethyl)imidazo[1,2-b]pyridazine] | 0.01 to 1
Cc1noc([C@@H]2CN(c3cc(-c4cnc5ccc(C(F)F)nn45)ccn3)C[C@H](C)O2)n1 [II-748] | 0.01 to 1

The remaining lines, values ahead:

Ki [µM] | SMILES
< 0.01 | CC(NS(C)(=O)=O)c1cccc(-c2cc(-c3cnc4ccc(C(F)F)nn34)ncn2)c1 (centres unmarked) [II-609, N-[1-[3-[6-[6-(Difluoromethyl)imidazo[1,2-b]pyridazin-3-yl]pyrimidin-4-yl]phenyl]ethyl]methanesulfonamide]
0.01 to 1 | Cc1cc(C(=O)N=S(C)(C)=O)cc(-c2cc(-c3cnc4ccc(C(F)F)nn34)ncn2)c1 [II-611, 3-(6-(6-(difluoromethyl)imidazo[1,2-b]pyridazin-3-yl)pyrimidin-4-yl)-N-(dimethyl(oxo)-λ^6-sulfanylidene)-5-methylbenzamide]
0.01 to 1 | CC1CN(c2cc(-c3cnc4ccc(C(F)F)nn34)ncn2)CC(CO)O1 (centres unmarked) [II-615, (4-(6-(6-(Difluoromethyl)imidazo[1,2-b]pyridazin-3-yl)pyrimidin-4-yl)-6-methylmorpholin-2-yl)methanol]
0.01 to 1 | CC1CN(c2cc(-c3cnc4ccc(C(F)F)nn34)ncn2)CC(CO)O1 (centres unmarked) [II-616, (4-(6-(6-(Difluoromethyl)imidazo[1,2-b]pyridazin-3-yl)pyrimidin-4-yl)-6-methylmorpholin-2-yl)methanol]
0.01 to 1 | CC(C)C(C)(O)C1CCCN(c2cc(-c3cnc4ccc(C(F)F)nn34)ncn2)C1 (centres unmarked) [II-622, 2-(1-(6-(6-(Difluoromethyl)imidazo[1,2-b]pyridazin-3-yl)pyrimidin-4-yl)piperidin-3-yl)-3-methylbutan-2-ol]
0.01 to 1 | CCS(=O)(CC)=NC1CC(C)CN(c2cc(-c3cnc4ccc(C(F)F)nn34)ncn2)C1 (centres unmarked) [II-627, ((1-(6-(6-(Difluoromethyl)imidazo[1,2-b]pyridazin-3-yl)pyrimidin-4-yl)-5-methylpiperidin-3-yl)imino)diethyl-λ^6-sulfanone]
0.01 to 1 | CC1CCN(c2cc(-c3cnc4ccc(C(F)F)nn34)ncn2)CC1N=S(C)(C)=O (centres unmarked) [II-629, ((1-(6-(6-(Difluoromethyl)imidazo[1,2-b]pyridazin-3-yl)pyrimidin-4-yl)-4-methylpiperidin-3-yl)imino)dimethyl-λ^6-sulfanone]
0.01 to 1 | CC1CC(N=S(C)(=O)C2CC2)CN(c2cc(-c3cnc4ccc(C(F)F)nn34)ncn2)C1 (centres unmarked) [II-634, Cyclopropyl((1-(6-(6-(difluoromethyl)imidazo[1,2-b]pyridazin-3-yl)pyrimidin-4-yl)-5-methylpiperidin-3-yl)imino)(methyl)-λ^6-sulfanone]
0.01 to 1 | CCS(C)(=O)=NC1CC(C)CN(c2cc(-c3cnc4ccc(C(F)F)nn34)ncn2)C1 (centres unmarked) [II-635, ((1-(6-(6-(Difluoromethyl)imidazo[1,2-b]pyridazin-3-yl)pyrimidin-4-yl)-5-methylpiperidin-3-yl)imino)(ethyl)(methyl)-λ^6-sulfanone]
0.01 to 1 | CS(C)(=O)=NC1CC(C(F)(F)F)CN(c2cc(-c3cnc4ccc(C(F)F)nn34)ncn2)C1 (centres unmarked) [II-694, ((1-(6-(6-(Difluoromethyl)imidazo[1,2-b]pyridazin-3-yl)pyrimidin-4-yl)-5-(trifluoromethyl)piperidin-3-yl)imino)dimethyl-λ^6-sulfanone]
> 1 | FC(F)(F)c1ccc2ncc(-c3cc(-c4cnn(C5CCOCC5)c4)ncn3)n2n1 [II-708, 3-[6-(1-Tetrahydropyran-4-ylpyrazol-4-yl)pyrimidin-4-yl]-6-(trifluoromethyl)imidazo[1,2-b]pyridazine]
> 1 | CC(=O)N1CCN(c2cc(-c3cnc4ccc(C(=O)O)nn34)ccn2)CC1 [II-734, 3-(2-(4-acetylpiperazin-1-yl)pyridin-4-yl)imidazo[1,2-b]pyridazine-6-carboxylic acid]
0.01 to 1 | Cc1noc([C@@H]2CN(c3cc(-c4cnc5ccc(C(F)(F)F)nn45)ccn3)C[C@@H](C)O2)n1 [II-742]
0.01 to 1 | C[C@H]1CN(c2cc(-c3cnc4ccc(C(F)(F)F)nn34)ccn2)C[C@@H](c2nc(C3CC3)no2)O1 [II-743]
0.01 to 1 | Cc1noc([C@H]2CN(c3cc(-c4cnc5ccc(C(F)(F)F)nn45)ccn3)C[C@@H](C)O2)n1 [II-744]
0.01 to 1 | Cc1noc([C@@H]2CN(c3cc(-c4cnc5ccc(C(F)(F)F)nn45)ccn3)C[C@H](C)O2)n1 [II-745]
0.01 to 1 | FC(F)(F)c1ccc2ncc(-c3ccnc(N4CCCC(c5ncc[nH]5)C4)c3)n2n1 (centres unmarked) [II-746]
0.01 to 1 | Cc1nnc([C@@H]2CN(c3cc(-c4cnc5ccc(C(F)(F)F)nn45)ccn3)C[C@H](C)O2)o1 [II-747]
0.01 to 1 | FC(F)c1ccc2ncc(-c3ccnc(N4CCCC(c5c[nH]cn5)C4)c3)n2n1 (centres unmarked) [II-749]
